Reference: the supplement of paper PMC10307832

Assays:
Experiment in all cases: relative viability (nuclei count vs DMSO), 5 days (fraction); higher = more cells survive
XMD13-2 + AZD7762 = compound: C1CC1C(=O)NC2=NNC3=C2C=CC(=C3)C4=CC(=CC=C4)C(=O)NC5CC5 [XMD13-2] + NC(=O)Nc1cc(-c2cccc(F)c2)sc1C(=O)N[C@H]1CCCNC1 [AZD7762] (partner 0.2 µM)
Summary of the method: (§1)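 Lung cancer cell lines were pin-tool dosed in 1536-well plates on the day after seeding, with either a lone drug or a fixed anchor-drug dose plus five library-drug doses (not always all listed) in √10 steps. Nuclei were counted on 4× images after 5 days. Relative viability is the ratio of treated-well to vehicle-well nuclei counts, with each value a median of duplicate plates.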

ALW-II-49-7 + AZD7762 = compound: Cc1ccc(C(=O)Nc2cccc(C(F)(F)F)c2)cc1Nc1cncc(C(N)=O)c1 [ALW-II-49-7] + NC(=O)Nc1cc(-c2cccc(F)c2)sc1C(=O)N[C@H]1CCCNC1 [AZD7762] (partner 0.2 µM)
Summary of the method: as §1

ALW-II-49-7 + Linsitinib = compound: Cc1ccc(C(=O)Nc2cccc(C(F)(F)F)c2)cc1Nc1cncc(C(N)=O)c1 [ALW-II-49-7] + C[C@]1(O)C[C@@H](c2nc(-c3ccc4ccc(-c5ccccc5)nc4c3)c3c(N)nccn32)C1 [Linsitinib] (partner 1 µM)
Summary of the method: as §1

Dasatinib + Alpelisib = compound: Cc1nc(Nc2ncc(C(=O)Nc3c(C)cccc3Cl)s2)cc(N2CCN(CCO)CC2)n1 [Dasatinib] + Cc1nc(NC(=O)N2CCC[C@H]2C(N)=O)sc1-c1ccnc(C(C)(C)C(F)(F)F)c1 [Alpelisib] (partner 2 µM)
Summary of the method: as §1

| Cell Line | relative viability (XMD13-2 + AZD7762; first compound 0.05 µM) | relative viability (XMD13-2 + AZD7762; first compound 0.1581 µM) | relative viability (XMD13-2 + AZD7762; first compound 0.5 µM) | relative viability (XMD13-2 + AZD7762; first compound 1.581 µM) | relative viability (XMD13-2 + AZD7762; first compound 5 µM) | relative viability (ALW-II-49-7 + AZD7762; first compound 0.08 µM) | relative viability (ALW-II-49-7 + AZD7762; first compound 0.253 µM) | relative viability (ALW-II-49-7 + AZD7762; first compound 0.8 µM) | relative viability (ALW-II-49-7 + AZD7762; first compound 2.53 µM) | relative viability (ALW-II-49-7 + AZD7762; first compound 8 µM) | relative viability (ALW-II-49-7 + Linsitinib; first compound 0.08 µM) | relative viability (ALW-II-49-7 + Linsitinib; first compound 0.253 µM) | relative viability (ALW-II-49-7 + Linsitinib; first compound 0.8 µM) | relative viability (ALW-II-49-7 + Linsitinib; first compound 8 µM) | relative viability (Dasatinib + Alpelisib; first compound 0.005 µM) | relative viability (Dasatinib + Alpelisib; first compound 0.01581 µM) | relative viability (Dasatinib + Alpelisib; first compound 0.05 µM) | relative viability (Dasatinib + Alpelisib; first compound 0.1581 µM) | relative viability (Dasatinib + Alpelisib; first compound 0.5 µM) | relative viability (ALW-II-49-7 + Linsitinib; first compound 2.53 µM) |
| --- | --- | --- | --- | --- | --- | --- | --- | --- | --- | --- | --- | --- | --- | --- | --- | --- | --- | --- | --- | --- |
| NCI-H522 | 1.08 | 0.728 | 0.7 | 0.737 | 0.692 | 0.787 | 0.842 | 0.754 | 0.83 | 0.934 | – | – | – | – | – | – | – | – | – | – |
| NCI-H661 | – | – | – | – | – | – | – | – | – | – | 0.631 | 0.534 | 0.493 | 0.536 | 0.538 | 0.584 | 0.424 | 0.271 | 0.254 | – |
| NCI-H1299 | – | – | – | – | – | – | – | – | – | – | 1.02 | 1.05 | 0.696 | 0.423 | 1.07 | 1.13 | 1.08 | 0.924 | 0.288 | 0.721 |
| NCI-H1563 | – | – | – | – | – | – | – | – | – | – | 1.18 | 1.18 | 1.31 | 1.22 | 0.742 | 0.615 | 0.662 | 0.608 | 0.604 | 1.34 |
| NCI-H1648 | 0.604 | – | 0.564 | 0.633 | 0.565 | 0.62 | 0.697 | 0.74 | 0.678 | 0.618 | – | – | – | – | – | – | – | – | – | – |
| NCI-H2009 | – | – | – | – | – | – | – | – | – | – | 1.21 | 1.12 | 1.09 | 1 | 1.15 | 0.956 | 1.04 | 0.88 | 0.204 | 1.02 |
| NCI-H2023 | – | – | – | – | – | – | – | – | – | – | 0.653 | 0.579 | 0.697 | 0.645 | 0.479 | 0.481 | 0.436 | 0.473 | 0.27 | 0.679 |
| NCI-H2170 | 0.957 | 1 | 1 | 0.884 | 0.859 | 1.03 | 0.775 | 0.833 | 0.835 | 0.817 | – | – | – | – | 0.738 | 0.649 | 0.644 | 0.449 | 0.382 | – |
| NCI-H2228 | – | – | – | – | – | – | – | – | – | – | 1.17 | 0.677 | 0.8 | 0.611 | 0.693 | 0.769 | 0.581 | 0.263 | 0.268 | 0.644 |
| NCI-H2342 | 0.494 | 0.566 | 0.516 | 0.455 | 0.598 | 0.506 | 0.498 | 0.419 | 0.408 | 0.484 | – | – | – | – | – | – | – | – | – | – |
| SK-LU-1 | – | – | – | – | – | – | – | – | – | – | 1.03 | 1.22 | 1.19 | 0.793 | 0.623 | 0.399 | 0.318 | 0.2 | 0.234 | 0.953 |
| SK-MES-1 | – | – | – | – | – | – | – | – | – | – | 1.03 | 1.14 | 1.13 | 0.901 | 0.991 | – | 0.713 | 0.474 | 0.251 | 0.952 |
| SW 900 | 0.741 | 0.587 | 0.679 | 0.467 | 0.835 | 0.616 | 0.485 | – | 0.554 | 0.542 | – | – | – | – | – | – | – | – | – | – |
| SW 1573 | – | – | – | – | – | – | – | – | – | – | 0.867 | 0.906 | 0.903 | 0.768 | 0.596 | 0.524 | 0.438 | 0.302 | 0.241 | 0.795 |
